Assay results published in US5516790A, “Synthesis and application of alkyl-substituted dibenzofurans as antitumorigenic agents” (Texas A&M University System Technology Licensing Office, priority 1994, dated 1996).

Columns and labels:
Format in all cases: cell-based, human
160-kDa protein = tested on: 160-kDa protein;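 for Secreted 160-kDa protein: MCF-7 human breast cancer cells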
Description: (§1) On day 0, the media was removed and the cells were rinsed two times with PBS. […] The cells were allowed to incubate for 48 h. […] After 6 h, the media was removed, 10 μl was counted and the remaining media was used for analysis of secreted proteins.
(§2) The secreted proteins were analyzed by sodium dodecyl sulfate (SDS) polyacrylamide gel electrophoresis; 30 μl of the media was mixed with an equal volume of buffer containing SDS, β-mercaptoethanol, glycerol, Tris and bromophenol blue. The samples were heated for 2 minutes in a boiling water bath and 50 μl of each sample was loaded onto a 1.5 mm thick 12% acrylamide slab gel (containing 0.075% bisacrylamide) with a 3% stacking gel (containing 0.15% bisacrylamide). The gels were run at […] overnight and processed for fluorography (using Enhance: Dupont) and exposed to Kodak X-OMAT film for 10 days at -80° C. The molecular weights of the proteins were estimated by their mobility relative to a set of standard proteins with known molecular weights.
(§3) The incorporation of ^35 S-methionine into the 34-kDa, 52-kDa and 160-kDa proteins was estimated by scanning the films using a Zeineh Soft Laser Scanning Densitometer (model SLR-20/10) from Biomedical Instruments,Inc. The percentage of the area of the scans due to the particular protein was then compared between the experimental and control samples and the results are presented as means ± SD for at least three samples per treatment group.

34-kDa protein = tested on: 34-kDa protein;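 for Secreted 34-kDa protein: MCF-7 human breast cancer cells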
Description: as §1, §2, §3

52-kDa protein = details: mcf-7 cells, 48 h, 0.001 µM
Description: as §1, §2, §3

[1] = 17β-estradiol alone, 1 nM, 2880 min
[2] = Table 9, 17β-estradiol alone (1 nM), 2880 min

C[C@]12CC[C@@H]3c4ccc(O)cc4CC[C@H]3[C@@H]1CC[C@@H]2O [17β-Estradiol]
Secreted 160-kDa protein (160-kDa protein; [1]): 371 ± 27.1% of the values for control | Protein Secretion, 160-kDa (160-kDa protein; [2]): 228 % of Control | increase in secretion of the 160-kDa protein (160-kDa protein; mcf-7 cells, 48 h, 0.001 µM): 3.81 fold | Secreted 34-kDa protein (34-kDa protein; [1]): 282 ± 17.6% of the values for control | Protein Secretion, 34-kDa (34-kDa protein; [2]): 201 % of Control | increase in secretion of the 34-kDa protein (34-kDa protein; mcf-7 cells, 48 h, 0.001 µM): 3.72 fold | increase in secretion of the 52-kDa protein (52-kDa protein): 4.97 fold
